Publication PMC7854658, “Structural basis for ligand recognition of the neuropeptide Y Y2 receptor” (Nature Communications, 2021)
Substitutions are numbered along the chain they refer to. Where “and” joins values, the source holds several entries; their conditions need not be identical. Equal values may be shown once.

Assays:
Experiment in all cases: NPY-induced IP accumulation (IP-One), mutant
Type in all cases: cell-based
Y2R mutant L224^5.43A = target: T1, Y2R mutant L224^5.43A (Homo sapiens, UniProt P49146, L224A); conditions: 1 μM antagonist, source data Fig. 3
T1 construct: expressed in transfected cells; host or cells: HEK293

Y2R mutant Y219^5.38A = target: T2, Y2R mutant Y219^5.38A (Homo sapiens, UniProt P49146, Y219A); conditions: 1 μM antagonist, source data Fig. 3
T2 construct: expressed in transfected cells; host or cells: HEK293

Y2R mutant T308^7.36A = target: T3, Y2R mutant T308^7.36A (Homo sapiens, UniProt P49146, T308A)
T3 construct: expressed in transfected cells; host or cells: HEK293
T3 sequence (P49146 1-381 T308A): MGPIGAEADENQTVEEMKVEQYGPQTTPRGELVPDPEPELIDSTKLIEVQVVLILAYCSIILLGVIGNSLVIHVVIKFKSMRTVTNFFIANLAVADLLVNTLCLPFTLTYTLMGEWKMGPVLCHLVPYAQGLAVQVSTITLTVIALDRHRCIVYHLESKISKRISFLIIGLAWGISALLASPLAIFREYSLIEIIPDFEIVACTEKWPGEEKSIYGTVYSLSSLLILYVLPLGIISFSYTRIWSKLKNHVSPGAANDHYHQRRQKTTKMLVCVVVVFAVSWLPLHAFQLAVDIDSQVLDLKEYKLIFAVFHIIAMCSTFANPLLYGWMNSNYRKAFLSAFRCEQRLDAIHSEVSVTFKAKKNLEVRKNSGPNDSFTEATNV

Y2R mutant S223^5.42A = target: T4, Y2R mutant S223^5.42A (Homo sapiens, UniProt P49146, S223A); conditions: 1 μM antagonist, source data Fig. 3
T4 construct: expressed in transfected cells; host or cells: HEK293

Y2R mutant Q288^6.55A = target: T5, Y2R mutant Q288^6.55A (Homo sapiens, UniProt P49146, Q288A)
T5 construct: expressed in transfected cells; host or cells: HEK293
T5 sequence (P49146 1-381 Q288A): T3 sequence (P49146 1-381 T308A) with Q288A, A308T

Y2R mutant V134^3.36A = target: T6, Y2R mutant V134^3.36A (Homo sapiens, UniProt P49146, V134A)
T6 construct: expressed in transfected cells; host or cells: HEK293
T6 sequence (P49146 1-381 V134A): T3 sequence (P49146 1-381 T308A) with V134A, A308T

Y2R mutant H285^6.52T = target: T7, Y2R mutant H285^6.52T (Homo sapiens, UniProt P49146, H285T)
T7 construct: expressed in transfected cells; host or cells: HEK293
T7 sequence (P49146 1-381 H285T): T3 sequence (P49146 1-381 T308A) with H285T, A308T

[1] = 1 μM antagonist, source data Fig. 3
[2] = EC50(NPY + 1 μM antagonist)/EC50(NPY)
[3] = EC50 ratio (WT)/EC50 ratio (mutant)

T4 sequence (P49146 whole entry S223A): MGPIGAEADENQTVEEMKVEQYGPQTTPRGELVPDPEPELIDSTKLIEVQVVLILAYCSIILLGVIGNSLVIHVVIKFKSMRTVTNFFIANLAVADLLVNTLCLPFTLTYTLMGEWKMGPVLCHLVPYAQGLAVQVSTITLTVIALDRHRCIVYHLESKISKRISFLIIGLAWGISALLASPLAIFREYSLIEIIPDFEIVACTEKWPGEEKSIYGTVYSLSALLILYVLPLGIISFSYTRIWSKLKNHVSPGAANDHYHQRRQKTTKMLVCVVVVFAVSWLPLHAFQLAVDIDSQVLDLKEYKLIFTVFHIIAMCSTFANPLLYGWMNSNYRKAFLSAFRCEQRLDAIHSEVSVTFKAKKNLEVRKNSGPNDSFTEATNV
T2 sequence (P49146 whole entry Y219A): as the sequence (P49146 whole entry S223A) above, with Y219A, A223S counted along it
T1 sequence (P49146 whole entry L224A): as the sequence (P49146 whole entry S223A) above, with A223S, L224A counted along it

N=C(N)NCCC[C@H](NC(=O)CC1(CC(=O)N2CCN(C3c4ccccc4NC(=O)c4ccccc43)CC2)CCCC1)C(=O)NCCn1c(=O)n(-c2ccccc2)n(-c2ccccc2)c1=O (stereo partly drawn) [BIIE0246]
Average EC50 ratio (Y2R mutant L224^5.43A): 738.6
EC50 ratio (individual experiments) (Y2R mutant L224^5.43A): 1348.6 and 128.7
Average EC50 ratio (Y2R mutant Y219^5.38A): 97.9
EC50 ratio (individual experiments) (Y2R mutant Y219^5.38A): 48.6 and 147.2
Average EC50 ratio (Y2R mutant T308^7.36A; [1]): 233.8
EC50 ratio (individual experiments) (Y2R mutant T308^7.36A; [1]): 248.2 and 219.5
EC50 ratio (Y2R mutant T308^7.36A; [2]): 248 and 219
Ratio change (fold) (Y2R mutant T308^7.36A; [3]): 0.6 fold and 0.7 fold
Average EC50 ratio (Y2R mutant S223^5.42A): 168.7
EC50 ratio (individual experiments) (Y2R mutant S223^5.42A): 275.8 and 61.6
Average EC50 ratio (Y2R mutant Q288^6.55A; [1]): 143.2
EC50 ratio (individual experiments) (Y2R mutant Q288^6.55A; [1]): 101.5 and 185.0
EC50 ratio (Y2R mutant Q288^6.55A; [2]): 102 and 185
Ratio change (fold) (Y2R mutant Q288^6.55A; [3]): 1.6 fold and 0.9 fold
Average EC50 ratio (Y2R mutant V134^3.36A; [1]): 81.8
EC50 ratio (individual experiments) (Y2R mutant V134^3.36A; [1]): 76.2 and 87.4
EC50 ratio (Y2R mutant V134^3.36A; [2]): 76 and 87
Ratio change (fold) (Y2R mutant V134^3.36A; [3]): 2 fold and 1.8 fold
Average EC50 ratio (Y2R mutant H285^6.52T; [1]): 2.7
EC50 ratio (individual experiments) (Y2R mutant H285^6.52T; [1]): 3.5 and 1.9
Ratio change (fold) (Y2R mutant H285^6.52T; [3]): 45 fold and 84 fold
